# What was measured:
# [1] = tested on: participants with episodic migraine; assay: Study A: Migraine-Specific Quality of Life Questionnaire (MSQ v2.1) domain scores; format: in vivo, human; parameters: key to MSQ v2.1 Role Function Restrictive domain score, Week 12, mean (SD) / MSQ v2.1 Role Function Restrictive domain score, change from baseline, mean (SD) / MSQ v2.1 Role Function Restrictive domain score, MMRM LS mean change (SE): 0–100 scale, higher = better quality of life; details: for MSQ v2.1 Role Function Restrictive domain score, Week 12, mean (SD): mITT; for MSQ v2.1 Role Function Restrictive domain score, MMRM LS mean change (SE) / MSQ v2.1 Role Function Restrictive domain score, change from baseline, mean (SD): week 12, mITT; for MSQ v2.1 EF domain, improvement vs placebo / MSQ v2.1 RFP domain, improvement vs placebo: week 12
# Text: The Migraine-Specific Quality of Life Questionnaire Version 2.1 is one of the most frequently utilized disease-specific tools assessing the impact of migraine on HRQL. The MSQ is a validated tool that assess the impact of migraine on function (i.e., daily social and work-related activities) over the past 4 weeks across three dimensions: Role Function-Restrictive (RR, or “RFR”, relating to how migraines limit the patient's daily social and work related activities), Role Function-Preventive (RP, e.g., how migraines prevent the patient's daily social and work related activities), and Emotional Function (EF, e.g., the emotions associated with a patient's migraines). Patients respond to items using a 6-point scale: “none of the time,” “a little bit of the time,” “some of the time”, “a good bit of the time,” “most of the time” and “all of the time,” which are assigned scores of 1 to 6, respectively. Raw dimension scores are computed as a sum of item responses and rescaled from a 0 to 100 scale such that higher scores indicate better quality of life. See Bagley et al., Validating Migraine-Specific Quality of Life Questionnaire v2.1 in Episodic and Chronic Migraine, Headache, 2012 March; 52 (3): 409-21.
# The primary efficacy endpoint was change from baseline in mean monthly migraine days across the 12-week treatment period. Secondary efficacy endpoints, tested in hierarchical order, were change from baseline in mean monthly headache days across the 12-week treatment period, change from baseline in mean monthly acute medication use days across the 12 week treatment period, ≥50% reduction in 3-month average of monthly migraine days, change from baseline in MSQ v 2.1 Role Function-Restrictive domain score at week 12, change from baseline in mean monthly Performance of Daily Activities domain score of the AIM-D across the 12-week treatment period, and change from baseline in mean monthly Physical Impairment domain score of the AIM-D across the 12-week treatment period. An exploratory analysis of the time course of efficacy for atogepant by 4-week intervals, based on the least square mean change from baseline for the number of monthly migraine days over the 12-week treatment period was also conducted.
# A secondary endpoint measured the change from baseline in MSQ v2.1 Role Function Restrictive Domain Score at Week 12. The Migraine-Specific Quality of Life Questionnaire Version 2.1 is one of the most frequently utilized disease-specific tools assessing the impact of migraine on HRQL. The MSQ measures the impact of migraine on the patient's HRQL over the past 4 weeks across three dimensions: Role Function-Restrictive (RR), Role Function-Preventive (RP), and Emotional Function (EF).
# [2] = tested on: participants with episodic migraine; assay: Study A: adverse events (safety population); format: in vivo, human; details: for Deaths, n (%) / TEAE Constipation, n (%) / TEAE Fatigue, n (%) / TEAE Gastroenteritis, n (%) / TEAE Influenza, n (%) / TEAE Nasopharyngitis, n (%) / TEAE Nausea, n (%) / TEAE Sinus Congestion, n (%) / TEAE Sinusitis, n (%) / TEAE Somnolence, n (%) / TEAE Upper Respiratory Tract Infection, n (%) / TEAE Urinary Tract Infection, n (%): Study A, safety population
# Procedure: Adverse events were reported by participants throughout the trial, and at a 4-week follow-up visit. Adverse event information was collected and documented during each clinic visit. Participants could also report adverse events via telephone call between visits. Causality of each adverse event was determined by the investigator who was blinded to the treatment. In addition, clinical laboratory tests, vital signs, electrocardiograms (ECG), and Columbia-Suicide Severity Rating Scale were evaluated. Based on the potential hepatotoxicity of prior gepants, treatment-emergent elevations in ALT or AST ≥3 times the upper limit of normal, as well as potential Hy's law cases, were evaluated as prespecified adverse events of special interest and were reviewed by an independent panel of liver experts blinded to treatment (see, e.g., Negro A et al., CGRP Receptor Antagonists: an expanding drug class for acute migraine? Expert Opin Investig Drugs 2012; 21:807-18; Messina R et al., CGRP—a target for acute therapy in migraine: Clinical Data. Cephalalgia 2019; 39:420-7).
# Safety population included all randomized participants who took at least 1 dose of trial treatment. Participants are only counted once within each category. Percentages are calculated at 100×(n/N), where n is the number of participants within a specific category and N is the number of participants in the safety population for the treatment group. Adverse events are listed in decreasing order based on frequency reported in the overall population.
smiles,measurement,setting,value
C[C@@H]1[C@H](c2c(F)ccc(F)c2F)C[C@H](NC(=O)c2cnc3c(c2)C[C@@]2(C3)C(=O)Nc3ncccc32)C(=O)N1CC(F)(F)F [atogepant],"MSQ v2.1 RFR domain score, LSMD vs. placebo (95% CI)","[1]; 10 mg QD (symbol *), week 4, FIG. 11",8.6
same,"MSQ v2.1 RFR domain score, LSMD vs. placebo (95% CI)","[1]; 10 mg QD (symbol *), week 8, FIG. 11",11.3
same,"MSQ v2.1 RFR domain score, LSMD vs. placebo (95% CI)","[1]; 10 mg QD, Week 12",9.9
same,"MSQ v2.1 Role Function Restrictive domain score, Week 12, mean (SD)",[1]; 10 mg QD,75.6
same,"MSQ v2.1 RFR domain score, LSMD vs. placebo (95% CI)","[1]; 10 mg QD, week 12, listed as Atogepant",9.90
same,"MSQ v2.1 Role Function Restrictive domain score, MMRM LS mean change (SE)",[1]; 10 mg QD,30.35
same,"MSQ v2.1 Role Function Restrictive domain score, change from baseline, mean (SD)",[1]; 10 mg QD,30.8
same,"MSQ v2.1 EF domain, improvement vs placebo",[1]; 10 mg,8.3
same,"MSQ v2.1 RFP domain, improvement vs placebo",[1]; 10 mg,5.8
same,"MSQ v2.1 RFR domain score, LSMD vs. placebo (95% CI)","[1]; 30 mg QD (symbol †), week 4, FIG. 11",11.2
same,"MSQ v2.1 RFR domain score, LSMD vs. placebo (95% CI)","[1]; 30 mg QD (symbol †), week 8, FIG. 11",9.9
same,"MSQ v2.1 RFR domain score, LSMD vs. placebo (95% CI)","[1]; 30 mg QD, Week 12",10.1
same,"MSQ v2.1 Role Function Restrictive domain score, Week 12, mean (SD)",[1]; 30 mg QD,75.4
same,"MSQ v2.1 RFR domain score, LSMD vs. placebo (95% CI)","[1]; 30 mg QD, week 12, listed as Atogepant",10.08
same,"MSQ v2.1 Role Function Restrictive domain score, MMRM LS mean change (SE)",[1]; 30 mg QD,30.53
same,"MSQ v2.1 Role Function Restrictive domain score, change from baseline, mean (SD)",[1]; 30 mg QD,31.1
same,"MSQ v2.1 EF domain, improvement vs placebo",[1]; 30 mg,9.7
same,"MSQ v2.1 RFP domain, improvement vs placebo",[1]; 30 mg,6.9
same,"MSQ v2.1 RFR domain score, LSMD vs. placebo (95% CI)","[1]; 60 mg QD (symbol ‡), week 4, FIG. 11",12.3
same,"MSQ v2.1 RFR domain score, LSMD vs. placebo (95% CI)","[1]; 60 mg QD (symbol ‡), week 8, FIG. 11",10.8
same,"MSQ v2.1 RFR domain score, LSMD vs. placebo (95% CI)","[1]; 60 mg QD, Week 12",10.8
same,"MSQ v2.1 Role Function Restrictive domain score, Week 12, mean (SD)",[1]; 60 mg QD,78.0
same,"MSQ v2.1 RFR domain score, LSMD vs. placebo (95% CI)","[1]; 60 mg QD, week 12, listed as Atogepant",10.80
same,"MSQ v2.1 Role Function Restrictive domain score, MMRM LS mean change (SE)",[1]; 60 mg QD,31.25
same,"MSQ v2.1 Role Function Restrictive domain score, change from baseline, mean (SD)",[1]; 60 mg QD,30.5
same,"MSQ v2.1 EF domain, improvement vs placebo",[1]; 60 mg,10.5
same,"MSQ v2.1 RFP domain, improvement vs placebo",[1]; 60 mg,7.1
same,"Deaths, n (%)",[2]; 10 mg QD,(0.0) %
same,"TEAE Constipation, n (%)",[2]; 10 mg QD,(7.7) %
same,"TEAE Fatigue, n (%)",[2]; 10 mg QD,(1.4) %
same,"TEAE Gastroenteritis, n (%)",[2]; 10 mg QD,(0.9) %
same,"TEAE Influenza, n (%)",[2]; 10 mg QD,(1.4) %
same,"TEAE Nasopharyngitis, n (%)",[2]; 10 mg QD,(1.8) %
same,"TEAE Nausea, n (%)",[2]; 10 mg QD,(5.0) %
same,"TEAE Sinus Congestion, n (%)",[2]; 10 mg QD,(0.5) %
same,"TEAE Sinusitis, n (%)",[2]; 10 mg QD,(1.8) %
same,"TEAE Somnolence, n (%)",[2]; 10 mg QD,(3.2) %
same,"TEAE Upper Respiratory Tract Infection, n (%)",[2]; 10 mg QD,(4.1) %
same,"TEAE Urinary Tract Infection, n (%)",[2]; 10 mg QD,(1.4) %
same,"Deaths, n (%)",[2]; 30 mg QD,(0.0) %
same,"TEAE Constipation, n (%)",[2]; 30 mg QD,(7.0) %
same,"TEAE Fatigue, n (%)",[2]; 30 mg QD,(3.1) %
same,"TEAE Gastroenteritis, n (%)",[2]; 30 mg QD,(2.2) %
same,"TEAE Influenza, n (%)",[2]; 30 mg QD,(0.9) %
same,"TEAE Nasopharyngitis, n (%)",[2]; 30 mg QD,(3.5) %
same,"TEAE Nausea, n (%)",[2]; 30 mg QD,(4.4) %
same,"TEAE Sinus Congestion, n (%)",[2]; 30 mg QD,(0.9) %
same,"TEAE Sinusitis, n (%)",[2]; 30 mg QD,(1.3) %
same,"TEAE Somnolence, n (%)",[2]; 30 mg QD,(1.8) %
same,"TEAE Upper Respiratory Tract Infection, n (%)",[2]; 30 mg QD,(5.7) %
same,"TEAE Urinary Tract Infection, n (%)",[2]; 30 mg QD,(3.9) %
same,"Deaths, n (%)",[2]; 60 mg QD,(0.0) %
same,"TEAE Constipation, n (%)",[2]; 60 mg QD,(6.9) %
same,"TEAE Fatigue, n (%)",[2]; 60 mg QD,(3.9) %
same,"TEAE Gastroenteritis, n (%)",[2]; 60 mg QD,(1.3) %
same,"TEAE Influenza, n (%)",[2]; 60 mg QD,(2.2) %
same,"TEAE Nasopharyngitis, n (%)",[2]; 60 mg QD,(3.5) %
same,"TEAE Nausea, n (%)",[2]; 60 mg QD,(6.1) %
same,"TEAE Sinus Congestion, n (%)",[2]; 60 mg QD,(1.7) %
same,"TEAE Sinusitis, n (%)",[2]; 60 mg QD,(2.2) %
same,"TEAE Somnolence, n (%)",[2]; 60 mg QD,(1.7) %
same,"TEAE Upper Respiratory Tract Infection, n (%)",[2]; 60 mg QD,(3.9) %
same,"TEAE Urinary Tract Infection, n (%)",[2]; 60 mg QD,(3.9) %
same,cases of constipation mild in severity,"[2]; human, in vivo, 12 weeks",71.4%
same,cases of constipation moderate in severity,"[2]; human, in vivo, 12 weeks",26.5%
same,cases of nausea mild in severity,"[2]; human, in vivo, 12 weeks",77.1%
same,cases of nausea moderate in severity,"[2]; human, in vivo, 12 weeks",22.9%
same,frequency of upper respiratory tract infection,"[2]; human, in vivo, 12 weeks",3.9-5.7%

# — patent publication US12383545B1, “Treatment of migraine” (priority 2018, dated 2025)
